Legend:
Type in all cases: in vivo
[1] = test system: field bindweed (Convolvulus arvensis); experiment: Test F pre-/postemergence: field bindweed
Procedure, shortened: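 Preemergence treatment of seeds sown in silt loam soil, and postemergence treatment of plants 2–18 cm tall (1- to 4-leaf stage), with compounds in non-phytotoxic solvent plus surfactant. Greenhouse 14–21 days, then visual rating versus controls on 0–100 scale (100 = complete control).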

[2] = test system: field violet (Viola arvensis); experiment: Test D pre-/postemergence: field violet
Procedure, shortened: (§1)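 Species were sown in silt loam and sprayed preemergence, or grown in peat/vermiculite medium and sprayed postemergence at the 1- to 4-leaf stage (2–18 cm), with compounds in a surfactant-containing solvent. Injury was visually rated against untreated controls after 14–21 days, on a 0 (no effect) to 100 (complete control) scale.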

[3] = test system: Russian thistle (Salsola kali); experiment: Test C pre-/postemergence: Russian thistle; conditions: Preemergence
Procedure, shortened: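 Preemergence on seeds in loam/sand, postemergence on 2–18 cm (1–4-leaf) plants in peat-based medium; compounds in non-phytotoxic solvent with surfactant. After 13–15 days in greenhouse, visual rating versus controls, 0 (no effect) to 100 (complete control).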

[4] = test system: nutsedge, yellow (yellow nutsedge, Cyperus esculentus); experiment: Test F pre-/postemergence: nutsedge, yellow; conditions: Preemergence
From the text: Seeds of plant species selected from corn (Zea mays), soybean (Glycine max), velvetleaf (Abutilon theophrasti), lambsquarters (Chenopodium album), poinsettia, wild (wild poinsettia, Euphorbia heterophylla), pigweed, palmer (palmer pigweed, Amaranthus palmeri), waterhemp (common waterhemp, Amaranthus rudis), surinam grass (Brachiaria decumbens), crabgrass, Brazil (Brazilian crabgrass, Digitaria horizontalis), panicum, fall (fall panicum Panicum dichotomiflorum), crabgrass, large (large crabgrass, Digitaria sanguinalis), foxtail, giant (giant foxtail, Setaria faberii), foxtail, green (green foxtail Setaria viridis), goosegrass (Eleusine indica), ragweed (common ragweed, Ambrosia elatior), barnyardgrass (Echinochloa crus-galli), sandbur (southern sandbur, Cenchrus echinatus), arrowleaf sida (Sida rhombifolia), ryegrass, Italian (Italian ryegrass, Lolium multiflorum), dayflower, VA (Virginia (VA) dayflower, Commelina virginica), field bindweed (Convolvulus arvensis), cocklebur (common cocklebur, Xanthium strumarium), morningglory (Ipomoea coccinea), nightshade (eastern black nightshade, Solanum ptycanthum), kochia (Kochia scoparia), nutsedge, yellow (yellow nutsedge, Cyperus esculentus), johnsongrass (Sorghum halepense), smartweed (ladysthumb smartweed, Polygonum persicaria), and beggarticks (hairy beggarticks, Bidens pilosa), were planted into a silt loam soil and treated preemergence with test chemicals formulated in a non-phytotoxic solvent mixture which included a surfactant. At the same time, plants selected from these crop and weed species and also pigweed (Amaranthus retroflexus), waterhemp_RES1 (ALS/Triazine resistant common waterhemp, Amaranthus rudis) and waterhemp_RES2 (ALS/HPPD resistant common waterhemp, Amaranthus rudis) were planted in pots containing a planting medium comprising spaghnum peat moss, vermiculite, wetting agent and starter nutrients treated with postemergence applications of some of the test chemicals formulated in the same manner. Plants ranged in height from 2 to 18 cm for postemergence treatments (1- to 4-leaf stage).
Treated plants and controls were maintained in a greenhouse for 14 to 21 days, after which time all species were compared to controls and visually evaluated. Plant response ratings, summarized in Table E, are based on a scale of 0 to 100 where 0 is no effect and 100 is complete control. A dash (-) response means no test result.

[5] = test system: oilseed rape (Brassica napus); experiment: Test D pre-/postemergence: oilseed rape
Procedure, shortened: as §1

[6] = Preemergence, 16 g ai/ha, scale 0 to 100, 0 no effect, 100 complete control
[7] = Preemergence, 31 g ai/ha, scale 0 to 100, 0 no effect, 100 complete control
[8] = Preemergence, 62 g ai/ha, scale 0 to 100
[9] = Preemergence, 125 g ai/ha, scale 0 to 100
[10] = Postemergence, 31 g ai/ha, scale 0 to 100 (0 no effect, 100 complete control)
[11] = Postemergence, 62 g ai/ha, scale 0 to 100 (0 no effect, 100 complete control)
[12] = Postemergence, 125 g ai/ha, scale 0 to 100, 0 no effect, 100 complete control
[13] = Postemergence, 16 g ai/ha, scale 0 to 100
[14] = 125 g ai/ha, scale 0 to 100, 0 no effect, 100 complete control
[15] = 250 g ai/ha, scale 0 to 100, 0 no effect, 100 complete control
[16] = 16 g ai/ha, scale 0 to 100, 0 no effect, 100 complete control
[17] = 31 g ai/ha, scale 0 to 100, 0 no effect, 100 complete control

Structure (SMILES)	Plant response rating, Field Bindweed [1, 6]	Plant response rating, Field Bindweed [1, 7]	Plant response rating, Field Bindweed [1, 9]	Plant response rating: Field Violet [2, 10]	Plant response rating: Field Violet [2, 11]	Plant response rating: Field Violet [2, 12]	Plant response rating, Field Violet [2, 13]	Plant response rating, Field Violet [2, 6]	Plant response rating, Field Violet [2, 7]	Plant response rating, Field Violet [2, 8]	Plant response rating, Field Violet [2, 9]	Plant response rating, Russian Thistle [3, 14]	Plant response rating, Russian Thistle [3, 15]	Plant response rating, Nutsedge, Yellow [4, 16]	Plant response rating, Nutsedge, Yellow [4, 17]	Plant response rating, Nutsedge, Yellow ([4]; 125 g ai/ha, scale 0 to 100)	Plant response rating: Oilseed Rape [5, 10]	Plant response rating: Oilseed Rape [5, 11]	Plant response rating: Oilseed Rape [5, 12]	Plant response rating, Oilseed Rape [5, 13]	also measured
Cc1nn(-c2ccc(C(F)(F)F)c(F)c2)nc1Oc1ccnc(C(F)(F)F)c1 [Compound 148]	0	0	20	95	95	95	90	90	100	95	100	95	95	0	0	20	35	80	100	30	Plant response rating, Field Bindweed [1, 8]: 0; Plant response rating, Field Bindweed ([1]; Preemergence, 250 g ai/ha, scale 0 to 100): 50; Plant response rating, Russian Thistle ([3]; 62 g ai/ha, scale of 0 to 100, 0 is no effect, 100 is complete control): 85; Plant response rating, Nutsedge, Yellow ([4]; 250 g ai/ha, scale 0 to 100): 35; Plant response rating, Oilseed Rape [5, 6]: 5; Plant response rating, Oilseed Rape [5, 7]: 0; Plant response rating, Oilseed Rape [5, 8]: 10; Plant response rating, Oilseed Rape [5, 9]: 20
CCOc1nn(-c2ccc(F)cc2)nc1Cc1ccnc(C(F)(F)F)c1 [Compound 196, 4-[[5-ethoxy-2-(4-fluorophenyl)-2H-1,2,3-triazol-4-yl]methyl]-2-(trifluoromethyl)pyridine]	0	25	65	85	95	100	80	80	95	100	100	90	90	0	0	75	100	100	100	80	Plant response rating, Field Bindweed ([1]; Postemergence, 8 g ai/ha, scale 0 to 100): 50; Plant response rating, Field Bindweed [1, 13]: 60; Plant response rating, Field Bindweed ([1]; Postemergence, 31 g ai/ha, scale 0 to 100): 70; Plant response rating, Field Bindweed ([1]; Postemergence, 62 g ai/ha, scale 0 to 100): 75; Plant response rating, Field Bindweed ([1]; Postemergence, 125 g ai/ha, scale 0 to 100): 75; Plant response rating, Field Bindweed ([1]; Preemergence, 8 g ai/ha, scale 0 to 100, 0 no effect, 100 complete control): 0; Plant response rating, Russian Thistle ([3]; 31 g ai/ha, scale 0 (no effect) to 100 (complete control)): 90; Plant response rating, Russian Thistle ([3]; 62 g ai/ha, scale 0 to 100, 0 no effect, 100 complete control): 90; Plant response rating, Nutsedge, Yellow ([4]; 8 g ai/ha, scale 0 to 100, 0 no effect, 100 complete control): 0; Plant response rating, Oilseed Rape [5, 6]: 5; Plant response rating, Oilseed Rape [5, 7]: 15; Plant response rating, Oilseed Rape [5, 8]: 100; Plant response rating, Oilseed Rape [5, 9]: 100

Source: US9302999B2, “Substituted triazoles as herbicides” (E. I. DU PONT DE NEMOURS AND COMPANY, priority 2012, dated 2016)
